According to the NIST ThermoML archive (doi:10.1021/je0400052):

Key:
[1] = xn = mol fraction of the nth substance listed; conditions: 101.3 kPa, Liquid
[2] = refractive index (Na D-line) (dimensionless); xn = mol fraction of the nth substance listed; conditions: 101.3 kPa, Liquid

CCOC=O [ethyl methanoate] + CCc1ccccc1
Conditions | mass density, [1] [kg/m3] | refractive index, [2] | viscosity, [1] [mPa·s]
303.15 K, x1 = 0.1478 | 862.2 | 1.4809 | 0.558
303.15 K, x1 = 0.2728 | 869.9 | 1.4691 | 0.527
303.15 K, x1 = 0.3884 | 871.2 | 1.4568 | 0.499
303.15 K, x1 = 0.4978 | 876.3 | 1.4431 | 0.473
303.15 K, x1 = 0.6 | 881.8 | 1.4286 | 0.45
303.15 K, x1 = 0.6925 | 886.6 | 1.4157 | 0.43
303.15 K, x1 = 0.7768 | 891 | 1.4058 | 0.413
303.15 K, x1 = 0.851 | 896.6 | 1.3938 | 0.397
303.15 K, x1 = 0.9309 | 903.7 | 1.3709 | 0.38
313.15 K, x1 = 0.1478 | 853.7 | 1.4791 | 0.502
313.15 K, x1 = 0.2728 | 857.7 | 1.4682 | 0.476
313.15 K, x1 = 0.3884 | 861.8 | 1.4532 | 0.452
313.15 K, x1 = 0.4978 | 866.3 | 1.4415 | 0.42
313.15 K, x1 = 0.6 | 873.2 | 1.4269 | 0.409
313.15 K, x1 = 0.6925 | 875.9 | 1.4142 | 0.391
313.15 K, x1 = 0.7768 | 880 | 1.4042 | 0.376
313.15 K, x1 = 0.851 | 885.1 | 1.3921 | 0.363
313.15 K, x1 = 0.9309 | 891.7 | 1.3695 | 0.351

CCOC=O [ethyl methanoate] + Cc1ccc(C)cc1
Conditions | mass density, [1] [kg/m3] | refractive index, [2] | viscosity, [1] [mPa·s]
303.15 K, x1 = 0.1658 | 857.7 | 1.4785 | 0.523
303.15 K, x1 = 0.2572 | 861.1 | 1.4746 | 0.503
303.15 K, x1 = 0.4068 | 868.2 | 1.4671 | 0.472
303.15 K, x1 = 0.5039 | 871.6 | 1.4532 | 0.452
303.15 K, x1 = 0.6037 | 878.8 | 1.451 | 0.434
303.15 K, x1 = 0.6916 | 883.4 | 1.4239 | 0.418
303.15 K, x1 = 0.7854 | 889.6 | 1.4121 | 0.403
303.15 K, x1 = 0.8588 | 896 | 1.3901 | 0.39
303.15 K, x1 = 0.9381 | 902.9 | 1.3711 | 0.375
313.15 K, x1 = 0.1658 | 849 | 1.4779 | 0.477
313.15 K, x1 = 0.2572 | 851.7 | 1.4732 | 0.451
313.15 K, x1 = 0.4068 | 858.8 | 1.4611 | 0.424
313.15 K, x1 = 0.5039 | 861.8 | 1.4499 | 0.407
313.15 K, x1 = 0.6037 | 868.8 | 1.4491 | 0.393
313.15 K, x1 = 0.6916 | 873.5 | 1.4201 | 0.38
313.15 K, x1 = 0.7854 | 877.8 | 1.4091 | 0.371
313.15 K, x1 = 0.8588 | 884.7 | 1.3891 | 0.36
313.15 K, x1 = 0.9381 | 891 | 1.3689 | 0.348

CCOC=O [ethyl methanoate] + Cc1cccc(C)c1
Conditions | mass density, [1] [kg/m3] | refractive index, [2] | viscosity, [1] [mPa·s]
303.15 K, x1 = 0.1348 | 858.3 | 1.4892 | 0.524
303.15 K, x1 = 0.2728 | 863.3 | 1.4695 | 0.494
303.15 K, x1 = 0.3968 | 868.7 | 1.4561 | 0.467
303.15 K, x1 = 0.4988 | 873.1 | 1.4391 | 0.449
303.15 K, x1 = 0.6032 | 877.7 | 1.4288 | 0.43
303.15 K, x1 = 0.6923 | 882.8 | 1.4265 | 0.414
303.15 K, x1 = 0.7867 | 888.4 | 1.4055 | 0.398
303.15 K, x1 = 0.8591 | 895 | 1.3875 | 0.386
303.15 K, x1 = 0.9379 | 900.1 | 1.3856 | 0.373
313.15 K, x1 = 0.1348 | 849.8 | 1.482 | 0.479
313.15 K, x1 = 0.2728 | 854.4 | 1.4679 | 0.453
313.15 K, x1 = 0.3968 | 859.5 | 1.4578 | 0.431
313.15 K, x1 = 0.4988 | 864.3 | 1.438 | 0.412
313.15 K, x1 = 0.6032 | 869.2 | 1.4276 | 0.397
313.15 K, x1 = 0.6923 | 874.3 | 1.4253 | 0.384
313.15 K, x1 = 0.7867 | 880.1 | 1.4043 | 0.369
313.15 K, x1 = 0.8591 | 884.1 | 1.385 | 0.357
313.15 K, x1 = 0.9379 | 889.7 | 1.3841 | 0.347

CCOC=O [ethyl methanoate] + Cc1ccccc1C
Conditions | mass density, [1] [kg/m3] | refractive index, [2] | viscosity, [1] [mPa·s]
303.15 K, x1 = 0.1467 | 872.7 | 1.4906 | 0.63
303.15 K, x1 = 0.2667 | 877.4 | 1.4873 | 0.586
303.15 K, x1 = 0.3779 | 880 | 1.4786 | 0.544
303.15 K, x1 = 0.4984 | 882.6 | 1.4721 | 0.502
303.15 K, x1 = 0.5936 | 886.9 | 1.4631 | 0.471
303.15 K, x1 = 0.694 | 891.2 | 1.4347 | 0.444
303.15 K, x1 = 0.7791 | 896.7 | 1.4072 | 0.42
303.15 K, x1 = 0.8563 | 901.2 | 1.3981 | 0.4
303.15 K, x1 = 0.9337 | 903.7 | 1.3729 | 0.378
313.15 K, x1 = 0.1467 | 864.6 | 1.4896 | 0.558
313.15 K, x1 = 0.2667 | 868.5 | 1.4819 | 0.521
313.15 K, x1 = 0.3779 | 871.9 | 1.4735 | 0.487
313.15 K, x1 = 0.4984 | 873.7 | 1.4671 | 0.452
313.15 K, x1 = 0.5936 | 876.9 | 1.4612 | 0.43
313.15 K, x1 = 0.694 | 881.6 | 1.4216 | 0.402
313.15 K, x1 = 0.7791 | 885.9 | 1.4061 | 0.382
313.15 K, x1 = 0.8563 | 889.6 | 1.3969 | 0.366
313.15 K, x1 = 0.9337 | 891.1 | 1.3701 | 0.359
